{
  "source": "paper PMC8811955",
  "about": "(Biochemistry, 2022)",
  "tested_on": "ySB267 (OSR4p-SEC4, Ca.Ste2)",
  "assay": "Peptide concentration-dependent growth of ySB267",
  "type": "cell-based, Saccharomyces cerevisiae",
  "details": "ySB267, tested concentrations, 20 h",
  "data": [
    {"sequence": "GFRLTNFGYFEPG [Ca peptide]", "values": [
      {"measurement": "Peptide concentration above which maximum growth rate was reached", "result": "> 2.5", "unit": "nM"}
    ]}
  ]
}
